Tests used:
Format in all cases: in vivo, mongrel adult dogs
[1] = system: heart rate; test: Effects on heart rate
Procedure: (§1) All experiments were made on male and female thoractomized mongrel adult dogs weighing about 10 kg. under anesthesia with pentobarbital sodium. Compounds A, D, E and F were suspended in 0.2% CMC solution, Compound B dissolved in hydrochloric acid solution (pH 6), and Compound C and active placebo being dissolved in physiological saline solution. Animals were administered the drug intravenously on brachiuma with either test compound or active placebo.
(§2) Arterial blood pressure was measured by pressure transducer (Nippon Koden MPU-0.5) connected with the cannula inserted from exposed carotid artery into aorta. Aortic blood flow was determined by means of electromagnetic flow meter (Nippon Koden MF-5) mounted at the origin of the aorta. Coronary sinus out flow and coronary sinus oxygen tension were assessed by means of electromagnetic flow meter (Nippon Koden MF-5) and P02 macro electrode (Beokmann Moder 160-C), respectively using Morawitz cannulization technique. Heart rate was measured by cardiotachometer (Nippon Koden RT-2) synchronized with systolic blood pressure of aorta.

[2] = system: coronary sinus oxygen tension; test: Effects on coronary sinus oxygen tension
Procedure: as §1, §2

[3] = system: arterial mean blood pressure; test: Effects on arterial mean blood pressure
Procedure: as §1, §2

[4] = system: coronary sinus out flow; test: Effects on coronary sinus out flow
Procedure: as §1, §2

[5] = system: aortic blood flow; test: Effects on aortic blood flow
Procedure: as §1, §2

CCOC(=O)N1CCN(C(C#N)c2ccc(OC)c(OC)c2)CC1 (centres unmarked) [Compound A]
Changes(%) of basal values, heart rate ([1]; 2.0 mg/kg i.v., 1 min): -4.7%
Changes(%) of basal values, heart rate ([1]; 2.0 mg/kg i.v., 5 min): -0.6%
Changes(%) of basal values, heart rate ([1]; 2.0 mg/kg i.v., 10 min): -0.4%
Changes(%) of basal values, heart rate ([1]; 2.0 mg/kg i.v., 20 min): 0%
Changes(%) of basal values, heart rate ([1]; 2.0 mg/kg i.v., 30 min): 0%
Changes(%) of basal values, heart rate ([1]; 2.0 mg/kg i.v., imm.): -5.2%
Changes(%) of basal values, heart rate ([1]; 6.0 mg/kg i.v., 1 min): -3.9%
Changes(%) of basal values, heart rate ([1]; 6.0 mg/kg i.v., 5 min): -2.3%
Changes(%) of basal values, heart rate ([1]; 6.0 mg/kg i.v., 10 min): -0.9%
Changes(%) of basal values, heart rate ([1]; 6.0 mg/kg i.v., 20 min): +1.0%
Changes(%) of basal values, heart rate ([1]; 6.0 mg/kg i.v., 30 min): +1.0%
Changes(%) of basal values, heart rate ([1]; 6.0 mg/kg i.v., imm.): -5.0%
Changes(%) of basal values, heart rate ([1]; 20.0 mg/kg i.v., 1 min): +1.5%
Changes(%) of basal values, heart rate ([1]; 20.0 mg/kg i.v., 5 min): 0%
Changes(%) of basal values, heart rate ([1]; 20.0 mg/kg i.v., 10 min): -1.8%
Changes(%) of basal values, heart rate ([1]; 20.0 mg/kg i.v., 20 min): -6.0%
Changes(%) of basal values, heart rate ([1]; 20.0 mg/kg i.v., 30 min): -6.7%
Changes(%) of basal values, heart rate ([1]; 20.0 mg/kg i.v., imm.): -7.0%
Effects on heart rate (in words) ([1]; i.v., anesthetized dogs): a slight negative chronotropic effect
Changes(%) of basal values, coronary sinus oxygen tension ([2]; 2.0 mg/kg i.v., 1 min): +15.2%
Changes(%) of basal values, coronary sinus oxygen tension ([2]; 2.0 mg/kg i.v., 5 min): +13.8%
Changes(%) of basal values, coronary sinus oxygen tension ([2]; 2.0 mg/kg i.v., 10 min): +12.5%
Changes(%) of basal values, coronary sinus oxygen tension ([2]; 2.0 mg/kg i.v., 20 min): +12.0%
Changes(%) of basal values, coronary sinus oxygen tension ([2]; 2.0 mg/kg i.v., 30 min): +12.0%
Changes(%) of basal values, coronary sinus oxygen tension ([2]; 2.0 mg/kg i.v., imm.): +11.2%
Changes(%) of basal values, coronary sinus oxygen tension ([2]; 6.0 mg/kg i.v., 1 min): +27.5%
Changes(%) of basal values, coronary sinus oxygen tension ([2]; 6.0 mg/kg i.v., 5 min): +27.0%
Changes(%) of basal values, coronary sinus oxygen tension ([2]; 6.0 mg/kg i.v., 10 min): +30.0%
Changes(%) of basal values, coronary sinus oxygen tension ([2]; 6.0 mg/kg i.v., 20 min): +19.6%
Changes(%) of basal values, coronary sinus oxygen tension ([2]; 6.0 mg/kg i.v., 30 min): +13.5%
Changes(%) of basal values, coronary sinus oxygen tension ([2]; 6.0 mg/kg i.v., imm.): +18.0%
Changes(%) of basal values, coronary sinus oxygen tension ([2]; 20.0 mg/kg i.v., 1 min): +47.2%
Changes(%) of basal values, coronary sinus oxygen tension ([2]; 20.0 mg/kg i.v., 5 min): +39.0%
Changes(%) of basal values, coronary sinus oxygen tension ([2]; 20.0 mg/kg i.v., 10 min): +91.7%
Changes(%) of basal values, coronary sinus oxygen tension ([2]; 20.0 mg/kg i.v., 20 min): +72.5%
Changes(%) of basal values, coronary sinus oxygen tension ([2]; 20.0 mg/kg i.v., 30 min): +56.9%
Changes(%) of basal values, coronary sinus oxygen tension ([2]; 20.0 mg/kg i.v., imm.): +31.6%
Effects on coronary sinus oxygen tension (in words) ([2]; i.v., anesthetized dogs): a significant increase in coronary sinus oxygen tension, effect of which was of long duration
Changes (%) of basal values, arterial mean blood pressure ([3]; 2.0 mg/kg i.v., 1 min): -1.5%
Changes (%) of basal values, arterial mean blood pressure ([3]; 2.0 mg/kg i.v., 5 min): -2.6%
Changes (%) of basal values, arterial mean blood pressure ([3]; 2.0 mg/kg i.v., 10 min): -4.2%
Changes (%) of basal values, arterial mean blood pressure ([3]; 2.0 mg/kg i.v., 20 min): -3.8%
Changes (%) of basal values, arterial mean blood pressure ([3]; 2.0 mg/kg i.v., 30 min): -4.5%
Changes (%) of basal values, arterial mean blood pressure ([3]; 2.0 mg/kg i.v., imm.): -4.0%
Changes (%) of basal values, arterial mean blood pressure ([3]; 6.0 mg/kg i.v., 1 min): -3.4%
Changes (%) of basal values, arterial mean blood pressure ([3]; 6.0 mg/kg i.v., 5 min): -5.2%
Changes (%) of basal values, arterial mean blood pressure ([3]; 6.0 mg/kg i.v., 10 min): -6.0%
Changes (%) of basal values, arterial mean blood pressure ([3]; 6.0 mg/kg i.v., 20 min): -5.2%
Changes (%) of basal values, arterial mean blood pressure ([3]; 6.0 mg/kg i.v., 30 min): -3.0%
Changes (%) of basal values, arterial mean blood pressure ([3]; 6.0 mg/kg i.v., imm.): -4.2%
Changes (%) of basal values, arterial mean blood pressure ([3]; 20.0 mg/kg i.v., 1 min): -16.9%
Changes (%) of basal values, arterial mean blood pressure ([3]; 20.0 mg/kg i.v., 5 min): -16.9%
Changes (%) of basal values, arterial mean blood pressure ([3]; 20.0 mg/kg i.v., 10 min): -16.0%
Changes (%) of basal values, arterial mean blood pressure ([3]; 20.0 mg/kg i.v., 20 min): -17.0%
Changes (%) of basal values, arterial mean blood pressure ([3]; 20.0 mg/kg i.v., 30 min): -14.9%
Changes (%) of basal values, arterial mean blood pressure ([3]; 20.0 mg/kg i.v., imm.): -14.5%
Effects on arterial mean blood pressure (in words) ([3]; i.v., anesthetized dogs): hypotensive effects being proportioned to their doses which were of long duration
Changes(%) of basal values, coronary sinus out flow ([4]; 2.0 mg/kg i.v., 1 min): +7.6%
Changes(%) of basal values, coronary sinus out flow ([4]; 2.0 mg/kg i.v., 5 min): +5.4%
Changes(%) of basal values, coronary sinus out flow ([4]; 2.0 mg/kg i.v., 10 min): +4.7%
Changes(%) of basal values, coronary sinus out flow ([4]; 2.0 mg/kg i.v., 20 min): +4.0%
Changes(%) of basal values, coronary sinus out flow ([4]; 2.0 mg/kg i.v., 30 min): +3.5%
Changes(%) of basal values, coronary sinus out flow ([4]; 2.0 mg/kg i.v., imm.): +10.9%
Changes(%) of basal values, coronary sinus out flow ([4]; 6.0 mg/kg i.v., 1 min): +16.6%
Changes(%) of basal values, coronary sinus out flow ([4]; 6.0 mg/kg i.v., 5 min): +17.0%
Changes(%) of basal values, coronary sinus out flow ([4]; 6.0 mg/kg i.v., 10 min): +18.0%
Changes(%) of basal values, coronary sinus out flow ([4]; 6.0 mg/kg i.v., 20 min): +8.5%
Changes(%) of basal values, coronary sinus out flow ([4]; 6.0 mg/kg i.v., 30 min): +8.0%
Changes(%) of basal values, coronary sinus out flow ([4]; 6.0 mg/kg i.v., imm.): +12.0%
Changes(%) of basal values, coronary sinus out flow ([4]; 20.0 mg/kg i.v., 1 min): +34.3%
Changes(%) of basal values, coronary sinus out flow ([4]; 20.0 mg/kg i.v., 5 min): +48.3%
Changes(%) of basal values, coronary sinus out flow ([4]; 20.0 mg/kg i.v., 10 min): +47.1%
Changes(%) of basal values, coronary sinus out flow ([4]; 20.0 mg/kg i.v., 20 min): +30.0%
Changes(%) of basal values, coronary sinus out flow ([4]; 20.0 mg/kg i.v., 30 min): +11.8%
Changes(%) of basal values, coronary sinus out flow ([4]; 20.0 mg/kg i.v., imm.): +18.5%
Effects on coronary sinus out flow (in words) ([4]; i.v., anesthetized dogs): a marked increasing effect on coronary sinus out flow, which was proportioned to doses thereof and of long duration
Changes (%) of basal values, aortic blood flow ([5]; 2.0 mg/kg i.v., 1 min): +4.3%
Changes (%) of basal values, aortic blood flow ([5]; 2.0 mg/kg i.v., 5 min): +3.7%
Changes (%) of basal values, aortic blood flow ([5]; 2.0 mg/kg i.v., 10 min): +2.3%
Changes (%) of basal values, aortic blood flow ([5]; 2.0 mg/kg i.v., 20 min): +1.0%
Changes (%) of basal values, aortic blood flow ([5]; 2.0 mg/kg i.v., 30 min): +1.0%
Changes (%) of basal values, aortic blood flow ([5]; 2.0 mg/kg i.v., imm.): +0.5%
Changes (%) of basal values, aortic blood flow ([5]; 6.0 mg/kg i.v., 1 min): +5.8%
Changes (%) of basal values, aortic blood flow ([5]; 6.0 mg/kg i.v., 5 min): +3.7%
Changes (%) of basal values, aortic blood flow ([5]; 6.0 mg/kg i.v., 10 min): +0.1%
Changes (%) of basal values, aortic blood flow ([5]; 6.0 mg/kg i.v., 20 min): -0.2%
Changes (%) of basal values, aortic blood flow ([5]; 6.0 mg/kg i.v., 30 min): +0.2%
Changes (%) of basal values, aortic blood flow ([5]; 6.0 mg/kg i.v., imm.): +4.3%
Changes (%) of basal values, aortic blood flow ([5]; 20.0 mg/kg i.v., 1 min): +7.3%
Changes (%) of basal values, aortic blood flow ([5]; 20.0 mg/kg i.v., 5 min): +10.2%
Changes (%) of basal values, aortic blood flow ([5]; 20.0 mg/kg i.v., 10 min): +8.0%
Changes (%) of basal values, aortic blood flow ([5]; 20.0 mg/kg i.v., 20 min): +3.3%
Changes (%) of basal values, aortic blood flow ([5]; 20.0 mg/kg i.v., 30 min): +1.0%
Changes (%) of basal values, aortic blood flow ([5]; 20.0 mg/kg i.v., imm.): +6.1%
increased aortic blood flow ([5]; during the course of observation period, i.v.): 2-8%

— US4068070A, “α-Cyanoamine compounds and a process for producing the same” (Fuji Chemical Industry Co., Ltd., priority 1974, dated 1978)
